Data on 6 molecules can be found in PMC11995211, “Design, Synthesis, and Evaluation of a New Fluorescent Ligand for the M2 Muscarinic Acetylcholine Receptor” (ACS Medicinal Chemistry Letters, 2025).

Data set [1] deals with M2R. To be noted: Figure 1, M2R antagonists; published data, reference numbers not given; cited from earlier work.
For data set [2], the system named is M5. To be noted: Figure 1; published data, reference numbers not given; cited from earlier work.
For data set [3] the following is noted: literature statement, reference numbers not given; cited from earlier work.
The subject of data set [4] is M4. To be noted: Figure 1; published data, reference numbers not given; cited from earlier work.
The subject of data set [5] is M3. To be noted: Figure 1; published data, reference numbers not given; cited from earlier work.
Data set [6] has as its system M1. The settings on record: Figure 1; published data, reference numbers not given; cited from earlier work.
In data set [7] the target is T1, M2R (Homo sapiens, UniProt P08172).
T1 sequence (P08172 1-466): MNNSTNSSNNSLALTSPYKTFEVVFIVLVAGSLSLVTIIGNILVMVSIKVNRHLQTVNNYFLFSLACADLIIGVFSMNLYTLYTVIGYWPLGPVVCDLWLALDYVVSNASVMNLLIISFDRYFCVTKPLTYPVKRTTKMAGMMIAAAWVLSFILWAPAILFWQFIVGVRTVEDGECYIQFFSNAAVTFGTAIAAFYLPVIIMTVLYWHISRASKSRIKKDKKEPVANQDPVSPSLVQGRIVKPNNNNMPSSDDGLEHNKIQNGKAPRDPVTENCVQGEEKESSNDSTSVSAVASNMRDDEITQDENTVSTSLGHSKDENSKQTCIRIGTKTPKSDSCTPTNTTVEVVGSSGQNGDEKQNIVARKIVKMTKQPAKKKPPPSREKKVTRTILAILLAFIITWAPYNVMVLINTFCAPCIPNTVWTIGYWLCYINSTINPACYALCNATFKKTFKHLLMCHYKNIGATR
As to the kind of experiment: BRET-based TRUPATH GoA activation assay, antagonism of carbachol-induced G protein activation. It is filed as cell-based. The settings on record: for mode of antagonism of carbachol-induced G protein activation: TRUPATH GoA assay. For orientation: Bioluminescence resonance energy transfer reports proximity on the nanometre scale.

Data set [8] concerns the target T2, hM1R (Homo sapiens, UniProt P11229).
T2 construct: expressed in transfected cells; host or cells: CHO cell membranes
T2 sequence (P11229 1-460): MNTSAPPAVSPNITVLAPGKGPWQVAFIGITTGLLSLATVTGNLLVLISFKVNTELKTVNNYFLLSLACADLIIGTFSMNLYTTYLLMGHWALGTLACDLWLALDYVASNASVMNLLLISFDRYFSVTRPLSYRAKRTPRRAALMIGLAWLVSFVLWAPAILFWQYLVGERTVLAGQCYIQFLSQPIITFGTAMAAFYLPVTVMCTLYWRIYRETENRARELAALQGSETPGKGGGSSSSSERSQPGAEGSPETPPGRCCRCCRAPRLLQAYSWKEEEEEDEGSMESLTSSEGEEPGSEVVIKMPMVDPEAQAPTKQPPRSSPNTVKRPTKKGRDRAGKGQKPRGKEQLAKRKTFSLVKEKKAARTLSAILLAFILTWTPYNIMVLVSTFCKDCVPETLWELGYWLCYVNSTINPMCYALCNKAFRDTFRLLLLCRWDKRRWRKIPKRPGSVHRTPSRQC
Briefly: Radioligand competition binding, [3H]-scopolamine (N-methyl), CHO cell membranes, hM1R. The settings on record: mean ± SD, n = 3; membranes from CHO cells transfected with hM1R; read-out: Receptor Ki M1. On the technique in general: Displacement assays read how much labelled ligand stays bound in the presence of the test substance.

Data set [9] has as its target T3, hM5R (Homo sapiens, UniProt P08912).
T3 construct: expressed in transfected cells; host or cells: CHO cell membranes
T3 sequence (P08912 1-532): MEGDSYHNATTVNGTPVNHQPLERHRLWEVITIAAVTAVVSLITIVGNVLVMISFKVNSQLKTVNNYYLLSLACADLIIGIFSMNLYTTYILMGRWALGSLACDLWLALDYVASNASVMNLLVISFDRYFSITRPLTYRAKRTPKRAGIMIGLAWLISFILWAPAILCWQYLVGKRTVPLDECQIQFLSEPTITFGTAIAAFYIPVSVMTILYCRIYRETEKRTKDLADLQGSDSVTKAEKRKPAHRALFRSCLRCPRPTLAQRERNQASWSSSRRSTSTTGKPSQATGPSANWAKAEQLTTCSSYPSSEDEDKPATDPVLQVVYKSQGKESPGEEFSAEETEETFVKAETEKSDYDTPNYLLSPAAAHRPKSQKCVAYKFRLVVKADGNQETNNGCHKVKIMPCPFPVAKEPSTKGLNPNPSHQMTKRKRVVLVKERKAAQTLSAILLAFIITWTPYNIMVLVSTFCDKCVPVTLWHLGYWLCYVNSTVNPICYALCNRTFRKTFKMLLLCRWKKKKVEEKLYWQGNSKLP
As to the kind of experiment: Radioligand competition binding, [3H]-scopolamine (N-methyl), CHO cell membranes, hM5R. To be noted: mean ± SD, n = 3; membranes from CHO cells transfected with hM5R; read-out: Receptor Ki M5.

Data set [10] deals with T4, hM3R (Homo sapiens, UniProt P20309).
T4 construct: expressed in transfected cells; host or cells: CHO cell membranes
T4 sequence (P20309 whole entry): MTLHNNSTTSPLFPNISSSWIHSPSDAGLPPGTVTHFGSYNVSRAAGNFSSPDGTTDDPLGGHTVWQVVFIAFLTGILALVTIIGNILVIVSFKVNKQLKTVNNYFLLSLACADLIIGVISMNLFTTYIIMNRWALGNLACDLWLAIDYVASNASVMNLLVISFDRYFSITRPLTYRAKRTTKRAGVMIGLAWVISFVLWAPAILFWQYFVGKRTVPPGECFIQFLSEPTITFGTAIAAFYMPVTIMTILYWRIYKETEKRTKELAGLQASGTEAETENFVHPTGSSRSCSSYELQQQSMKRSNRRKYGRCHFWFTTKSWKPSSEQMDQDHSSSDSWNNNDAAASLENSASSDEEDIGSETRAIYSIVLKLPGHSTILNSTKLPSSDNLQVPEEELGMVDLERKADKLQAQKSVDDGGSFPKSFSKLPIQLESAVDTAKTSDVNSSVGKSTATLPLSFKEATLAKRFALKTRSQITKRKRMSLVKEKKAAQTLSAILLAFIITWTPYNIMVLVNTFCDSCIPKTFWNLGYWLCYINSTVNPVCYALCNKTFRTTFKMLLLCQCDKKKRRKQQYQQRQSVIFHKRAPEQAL
As to the kind of experiment: Radioligand competition binding, [3H]-scopolamine (N-methyl), CHO cell membranes, hM3R. To be noted: mean ± SD, n = 3; membranes from CHO cells transfected with hM3R; read-out: Receptor Ki M3.

The target in data set [11] is T5, hM2R (Homo sapiens, UniProt P08172).
T5 construct: expressed in transfected cells; host or cells: CHO cell membranes
T5 sequence (P08172 1-466): T1 sequence (P08172 1-466)
As to the kind of experiment: Radioligand competition binding, [3H]-scopolamine (N-methyl), CHO cell membranes, hM2R. To be noted: mean ± SD, n = 3; membranes from CHO cells transfected with hM2R; read-out: Receptor Ki M2.

Data set [12] deals with T6, hM4R (Homo sapiens, UniProt P08173).
T6 construct: expressed in transfected cells; host or cells: CHO cell membranes
T6 sequence (P08173 1-479): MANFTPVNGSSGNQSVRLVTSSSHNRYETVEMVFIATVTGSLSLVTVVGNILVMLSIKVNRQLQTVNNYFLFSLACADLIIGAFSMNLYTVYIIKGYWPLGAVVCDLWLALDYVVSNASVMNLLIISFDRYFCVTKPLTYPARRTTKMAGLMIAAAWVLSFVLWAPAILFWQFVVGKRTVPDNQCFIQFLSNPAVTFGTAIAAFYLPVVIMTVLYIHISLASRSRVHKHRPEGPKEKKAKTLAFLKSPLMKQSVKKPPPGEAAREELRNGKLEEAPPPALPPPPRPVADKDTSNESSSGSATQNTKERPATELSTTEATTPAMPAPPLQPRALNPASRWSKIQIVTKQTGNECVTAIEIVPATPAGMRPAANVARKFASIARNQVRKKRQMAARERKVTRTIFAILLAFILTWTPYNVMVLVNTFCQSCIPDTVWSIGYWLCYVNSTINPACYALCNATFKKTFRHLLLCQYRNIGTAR
Briefly: Radioligand competition binding, [3H]-scopolamine (N-methyl), CHO cell membranes, hM4R. The settings on record: mean ± SD, n = 3; membranes from CHO cells transfected with hM4R; read-out: Receptor Ki M4.

By Ki is commonly meant the dissociation constant of the complex between target and ligand, obtained from inhibition or displacement. Take `Cc1ccccc1C(=O)N1CCC(N2CCC(Cc3ccc(S(=O)(=O)c4ccc5c(c4)OCO5)cc3)CC2)CC1` [Compound 3]: the Ki in data set [1] is 0.02 nM. For the same molecule, in data set [2], the “M2R selectivity M5/M2” value was 280. The pharmacokinetics entry in [3] is listed as “poor”. The “M2R selectivity M4/M2” value in [4] is 37. Moreover, the “M2R selectivity M3/M2” value in [5] was 730. Further, in data set [6], the “M2R selectivity M1/M2” value is 1400.
Take `NCCOCCOCCC(=O)NCCOCCOCCNc1ccccc1C(=O)N1CCC(N2CCC(Cc3ccc(S(=O)(=O)c4cccc(Cl)c4)cc3)CC2)CC1.O=C(O)C(F)(F)F` [Compound 32]: the “mode of antagonism of carbachol-induced G protein activation” value in [7] was “competitive antagonists”. The “Log(IC50) ± SD (M), carbachol-induced GoA protein activation” value in data set [7] (log10 of IC50 (negative values), HEK 293T, compound 20 min, then 10 μM carbachol 15 min, Hill-slope = 1, n = 3) is given as “–6.97 ± 0.12 M”. In addition, the Ki in data set [8] was determined as 113 ± 8 nM; in [9], 8.5 ± 0.9 nM; in [10], 373 ± 38 nM; in data set [11] it was 1.1 ± 0.1 nM; in data set [12] it was 6.2 ± 0.9 nM.
For the molecule `CCN(CC)CC1CCCCN1CC(=O)N1c2ccccc2C(=O)Nc2cccnc21` (stereo not drawn) [Compound 2], the Ki in data set [1] was 105 nM.
`CCCC(C)(C)C(=O)N(CC)CCCC1CCN(CC(=O)N2c3ccc(Cl)cc3C(=O)Nc3cccnc32)CC1` [Compound 1]: the Ki in data set [1] is 30.2 nM. Besides, the “M2R selectivity M1/M2” value in data set [6] is recorded as 35.
Take `Nc1ccccc1C(=O)N1CCC(N2CCC(Cc3ccc(S(=O)(=O)c4cccc(Cl)c4)cc3)CC2)CC1` [Compound 28]: the “mode of antagonism of carbachol-induced G protein activation” value in data set [7] is reported as “competitive antagonists”. The values for the Ki in data set [8] and in data set [12] were 425 ± 32 nM and 9.4 ± 1.1 nM, respectively. The oral bioavailability entry in data set [3] is recorded as “good”.
Regarding `NCCOCCOCCNc1ccccc1C(=O)N1CCC(N2CCC(Cc3ccc(S(=O)(=O)c4cccc(Cl)c4)cc3)CC2)CC1` [Compound 30], the Ki in data set [8] is 143 ± 11 nM; in data set [9], 8.6 ± 0.7 nM; in [10], 496 ± 36 nM; in data set [12], 7.4 ± 0.6 nM.
